Data taken from PubChem BioAssay AID1645865 (Buhrlage Lab, Dana-Farber Cancer Institute and Novartis …, 2021).
Activity calls are given as the source filed them.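 The calls were made as follows: active = maximal inhibition of the USP30 enzyme reaching 30% or more across the dose series; inactive = the rest.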

Molecular target: Ubiquitin carboxyl-terminal hydrolase 30 (Homo sapiens) (UniProt Q70CQ3)
Test: ubiquitin-specific protease 30 DUB inhibitors, concentration-effect, biochemical, validation of primary actives (AID 1645865)
Details: purified USP30, Ub-rhodamine cleavage, fluorescence, 2 h

Sequence of Ubiquitin carboxyl-terminal hydrolase 30 (Homo sapiens) (Q70CQ3 whole entry, looked up): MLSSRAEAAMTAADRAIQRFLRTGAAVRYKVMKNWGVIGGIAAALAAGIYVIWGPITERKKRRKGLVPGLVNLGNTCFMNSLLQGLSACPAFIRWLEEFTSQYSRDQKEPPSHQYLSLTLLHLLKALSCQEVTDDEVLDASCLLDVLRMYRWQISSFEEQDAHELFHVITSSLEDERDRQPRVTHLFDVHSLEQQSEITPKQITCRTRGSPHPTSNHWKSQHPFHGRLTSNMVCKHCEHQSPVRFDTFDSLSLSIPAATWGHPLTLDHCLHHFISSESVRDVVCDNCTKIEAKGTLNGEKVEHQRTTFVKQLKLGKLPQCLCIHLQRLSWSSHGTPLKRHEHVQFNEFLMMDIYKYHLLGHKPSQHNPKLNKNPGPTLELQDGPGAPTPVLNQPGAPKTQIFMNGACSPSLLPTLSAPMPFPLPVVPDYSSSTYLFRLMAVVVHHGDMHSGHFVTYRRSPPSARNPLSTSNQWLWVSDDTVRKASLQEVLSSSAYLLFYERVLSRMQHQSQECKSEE

Structure (SMILES)	IC50
Cc1cc(C(=O)N2CCN(C3CCN(Cc4ccc(Cl)o4)CC3)C(=O)C2)c(C)o1	> 50 µM (inactive)
O=C(Nc1ccc(F)cc1)Nc1ccccc1OCc1cc(=O)n2ccccc2n1	3.88 µM
O=C(c1cscn1)N1CCC2(CC1)CC1(CO2)Nc2ccccc2-n2cccc21 (stereo not given)	> 50 µM (inactive)
O=S(=O)(Nc1ccc(O)cc1)c1ccc2oc3ccc(S(=O)(=O)Nc4ccc(O)cc4)cc3c2c1	26.5 µM
O=C(Nc1cccc(C(F)(F)F)c1)N1CCCn2c(nc3ccccc32)C1	19.7 µM
Cc1ccc(-n2c(-c3ccccc3)cn3c4c(=O)[nH]c(=O)n(C)c4nc23)cc1Cl	0.222 µM
CCCCC/C=C/C=C/C(=O)OC1C(O)CC(c2ccc3c(c2O)C(=O)c2c(O)cc4cc(C)cc(O)c4c2C3=O)OC1C (stereo not given)	> 50 µM (inactive)
O=C1c2c(O)c(Cl)cc3c2[C@@]2(Oc4cc(Cl)c(O)c5c4[C@]3(O2)[C@@H]2O[C@@H]2C5=O)[C@@H]2O[C@H]12	1.1 µM
Cn1c2ccccc2c(=O)c2c(=O)n(Cc3ccccc3)c(-c3ccccc3F)nc21	0.111 µM
O=C1N(Cc2ccc(F)cc2)CCN1c1ccc2c(c1)CCC2	> 50 µM (inactive)
Cc1ccc(NC(=O)c2ccc3nn(CC(=O)Nc4ccc(F)cc4F)c(=O)n3c2)cc1	2.43 µM
Cc1ccc2c(=O)c3c([nH]c2c1C)CCN(CC(=O)NCc1ccccc1)C3	> 50 µM (inactive)
Cc1ccc(CNC(=O)c2cccc(N3C(=O)N4CCc5c([nH]c6ccccc56)[C@@]4(C)C3=O)c2)cc1	15.3 µM
Cc1ccccc1NC(=O)Cn1c(N2CCOCC2)nc2cc(C)n(C)c2c1=O	17.9 µM
Cc1c(C(=O)NCc2cccc(Br)c2)oc2c1-c1[nH]ncc1CC2	> 50 µM (inactive)
O=c1ccc(-c2noc(Cc3cccc(Cl)c3)n2)c[nH]1	> 50 µM (inactive)
CC(=O)C1=C(O)[C@]2(O)C(=O)c3c(c(C)c4ccc(C)c(O)c4c3O)C[C@H]2[C@@H](N)C1=O	4.68 µM
COc1ccc(-c2cc(N3CCC(NC(=O)c4ccccc4)C3)n[nH]2)cc1 (stereo not given)	19.8 µM
CN[C@H]1CC2(CCN(C(=O)CCCn3cccn3)CC2)OC[C@]1(C)O	> 50 µM (inactive)
O=C(Nc1ccc2c(c1)OCCO2)c1ccc(N2CCCCC2)nn1	> 50 µM (inactive)
COc1cccc2c1C(=O)c1ccc3c(c1C2=O)C(=O)CC(C)(O)C3 (stereo not given)	> 50 µM (inactive)
O=C(Cn1c(=O)n(Cc2ccco2)c(=O)c2ccc(C(=O)NC3CCCC3)cc21)NCc1ccco1	> 50 µM (inactive)
CCOc1ccc(CC(=O)Nc2ccc(-c3cn4cccnc4n3)cc2)cc1	> 50 µM (inactive)
Oc1cc(OCc2cccc(C(F)(F)F)c2)ccc1-c1ccn[nH]1	37.3 µM

Structure (SMILES)	IC50
C/C1=C\CCC(C)C(O)CC(O)C(C)C(O)CCC(C)C(O)CC2(O)OC(CC(OC(=O)CC(=O)O)CC(O)CC(O)CC(O)C(C)C(O)/C=C/C(C)C(C(C)CCCCCCCCN=C(N)N)OC1=O)CC(O)C2O (stereo not given)	> 50 µM (inactive)
Cc1ccc(NC(=O)c2cnc3c(c2)c(=O)n(C)c(=O)n3C)cc1	1.71 µM
COc1ccc(-c2nnc(SCc3ccccc3C#N)o2)c(OC)c1	49.7 µM
O=C(NC1CCS(=O)(=O)C1)c1ccc(N2CCC(Cc3ccccc3)CC2)nn1 (stereo not given)	> 50 µM (inactive)
O=C(Cn1c(-c2ccccc2)ncc(C(=O)NC2CC2)c1=O)Nc1ccccc1	14.4 µM
O=C(NCc1nc(-c2ccc3c(c2)[nH]c(=O)n3C2CCCC2)no1)c1ccccc1	> 50 µM (inactive)
Cc1ccc(N=Cc2sc(O)c3ccccc23)c(C)c1	> 50 µM (inactive)
Cc1cc(-c2cnc(N(C)C)nc2-c2ccc(CNC(=O)Cc3ccc(F)cc3)cc2)on1	> 50 µM (inactive)
CCc1ccc(-n2nc(C)c3c2NC(=O)CC3C(=O)c2ccc3c(c2)OCCO3)cc1 (stereo not given)	21 µM
COc1ccc(-c2cc(-c3nnc4n3CCCCC4)n(-c3ccccc3)n2)cc1	39.3 µM
COc1ccc2c(C)c(CC(=O)N3CCC[C@H]3C(=O)O)c(=O)oc2c1C	45 µM
CCn1cc(-c2nc(-c3ccccn3)no2)c(=O)c2cc(F)ccc21	23.1 µM
COc1ccc(C2CC(=O)Nc3n[nH]c(-c4ccccc4)c32)cc1OC (stereo not given)	18.8 µM
CC(C)(C)N=C1Nc2ncccc2NC12CCCN(C(=O)c1ccccc1)C2 (stereo not given)	> 50 µM (inactive)
Nc1c(-c2ccc(Cl)cc2)cnc2nc(Sc3ncc(C(F)(F)F)cc3Cl)nn12	> 50 µM (inactive)
CC(C)(C)c1ccc(C(=O)Nc2ccc(Oc3cccnc3)nc2)cc1	> 50 µM (inactive)
Cn1nccc1C(=O)N1CCCCC1c1ncc(Cc2ccc(Cl)cc2)o1 (stereo not given)	> 50 µM (inactive)
O=C1C=CC(O)C2C1CC13SSC4(CC5C(=O)C=CC(O)C5N4C1=O)C(=O)N23 (stereo not given)	1 µM
O=C(Cc1ccc(Cl)c(Cl)c1)OCC(=O)c1c[nH]c2ccccc12	> 50 µM (inactive)
O=C(Cn1cncc(C(=O)NC2CCCC2)c1=O)Nc1cccc(F)c1	19.3 µM
O=c1c2cnc(N3CCCCC3)nc2ccn1CCc1ccccc1	2.44 µM
Cc1ccc2c(c1C)NC(=O)[C@]21[C@@H]2C(=O)N(c3cc(Cl)ccc3Cl)C(=O)[C@@H]2[C@@H]2CCCN21	> 50 µM (inactive)
COc1cc2cc3c(c(O)c2c(O)c1-c1c(OC)cc2cc4c(c(O)c2c1O)C(=O)OC1CC(C)OC41)C(=O)OC1CC(C)OC31 (stereo not given)	> 50 µM (inactive)
CCn1cc(-c2cc(C(=O)Nc3cnn(Cc4cccc(F)c4)c3)c3ccccc3n2)cn1	49.2 µM

Structure (SMILES)	IC50
COc1ccc(NC(=O)CN2CCN(c3ccc(C(C)=O)cc3)CC2)cc1S(=O)(=O)N1CCCCC1	36.4 µM
O=C(OCc1ccc(Br)cc1)c1ccc2ccccc2n1	> 50 µM (inactive)
Oc1sc(C=Nc2cc(Cl)ccc2Cl)c2ccccc12	0.981 µM
Cc1cc(C)nc(-n2nc(C)c3c2NC(=O)CSC3c2ccccc2F)n1 (stereo not given)	29.5 µM
CCS(=O)(=O)c1ccccc1C(=O)Nc1ccc2sc(C)nc2c1	> 50 µM (inactive)
CCc1ccc(Nc2cc(C(=O)NCCCOC(C)C)c3ccccc3n2)cc1	8.88 µM
Clc1ccccc1CSc1nnc(C2CCCCC2)n1Cc1ccccc1	21.5 µM
Cc1cc(C(=O)Nc2ccc3nc(N4CCN(c5ncccn5)CC4)cc(C)c3c2)ccc1[N+](=O)[O-]	2.24 µM
O=C(O)Cc1ccc(Nc2nc3ccccc3n3nnnc23)cc1	> 50 µM (inactive)
O=C(CCCCn1c(=O)c2ccccc2n(CC(=O)Nc2ccc(F)c(Cl)c2)c1=O)NCc1ccco1	> 50 µM (inactive)
O=C(c1ccc(Cl)cc1)c1c[nH]cc1-c1c(F)cccc1Cl	19 µM
Cc1cccc(S(=O)(=O)N2CCc3nc4ccccc4n3CC2)c1	23.4 µM
COc1c(O)cc(CC(=O)O)c(C(C)=O)c1O	> 5 µM (inactive)
O=C(Nc1ccc2sccc2c1)c1ccc(F)cc1	35.4 µM
CCN(CC)C(=O)c1sc(NC(=O)/C=C/c2c(F)cccc2Cl)c(C#N)c1C	1.89 µM
Cc1nc(N2CCCC2)ncc1-c1cc(=O)[nH]c(N2CCc3ccccc3C2)n1	24.4 µM
COc1ccccc1OCC(=O)Nc1ccc2c(c1)CCC(=O)N2Cc1ccccc1	> 50 µM (inactive)
O=C(CCc1nnc2n(Cc3ccccc3)c(=O)c3ccccc3n12)N1CCN(c2ccccn2)CC1	2.29 µM
Cc1cc(C)nc(SCCn2c(N3CCC(Cc4ccccc4)CC3)nc3c2c(=O)n(C)c(=O)n3C)n1	46.9 µM
COc1ccc2nc(NC(=O)C(CC(C)C)NS(=O)(=O)c3ccc4c(c3)CCN4C(C)=O)sc2c1 (stereo not given)	31.1 µM
Cc1nn(CC(=O)Nc2ccc(Br)c3cccnc23)c(=O)c2ccccc12	> 5 µM (inactive)
CCOc1ccc(C(=O)Cn2c(=O)n(CC3CCCO3)c(=O)c3cc(OC)c(OC)cc32)cc1Cl (stereo not given)	25.8 µM
COC(=O)C1C(c2ccc(OC)cc2)C2(C(=O)c3ccccc3C2=O)C2C=Cc3ccccc3N12 (stereo not given)	> 50 µM (inactive)
Cc1cc(C)c(NC(=O)Cn2c(=O)n(CCC(=O)NCc3ccc4c(c3)OCO4)c(=O)c3sccc32)c(C)c1	1.98 µM

Structure (SMILES)	IC50
O=C(NCc1ccccc1)Nc1cccc2ccccc12	31.9 µM
COc1cc(O)c2c(c1)C1=CC(=O)C(O)=C[C@]1(C)OC2=O	34.6 µM
Cc1nc(-c2noc(-c3ccncc3)n2)cn1CC(=O)N1CCN(c2ccc(F)cc2)CC1	39.1 µM
COc1ccc(CC(=O)Nc2cccc(-c3nc4ncccc4o3)c2)cc1OC	> 50 µM (inactive)
COc1ccc(NC(=O)c2nnn(-c3cccc(C)c3)c2C)cc1	> 50 µM (inactive)
Cc1ccc(-n2c(-c3ccccc3)cn3c4c(=O)[nH]c(=O)n(C)c4nc23)cc1C	0.286 µM
CC(C)=CCCC1(C)OC2=C(C(=O)c3cc(O)cc(O)c3C2=O)[C@H]2C=C(C)CC[C@H]21 (stereo not given in full)	> 50 µM (inactive)
Cc1sc(-c2ccc(Cl)nc2)nc1OC(=O)c1ccc(F)cc1F	8.06 µM
CC1CC(=O)Nc2ccccc2N1S(=O)(=O)c1ccc(C#N)cc1 (stereo not given)	> 50 µM (inactive)
O=C(c1ccc2cc[nH]c2c1)N1CCC(Nc2cccnc2)C1 (stereo not given)	> 50 µM (inactive)
Cc1ccc2nc(CCc3ccc(NS(=O)(=O)c4cccc(Cl)c4C)cc3)[nH]c2c1	44.8 µM
CC1(C)C[C@@H](O)[C@]2(C)CC[C@]3(C)C(=CCC4[C@@]5(C)CC[C@H](O)[C@](C)(CO)[C@@H]5CC[C@]43C)[C@@H]2C1 (stereo not given in full)	3.18 µM
CCOc1ccc(NC(=O)Cn2c(=O)n(CCCCCC(=O)NCc3ccc(F)cc3)c(=O)c3sccc32)cc1	1.44 µM
COc1ccccc1-c1nc(Cn2nnc(C(=O)Nc3cc(C)cc(C)c3)c2N)c(C)o1	39.7 µM
Cc1cc(=O)n(C)c2c(O)c3c(cc12)c(C)cc(=O)n3C	> 50 µM (inactive)
NS(=O)(=O)c1ccc(Cl)c(C(=O)OCc2csc(Nc3ccccc3)n2)c1	> 50 µM (inactive)
O=C(CC1Oc2ccccc2NC1=O)Nc1ccccc1Br (stereo not given)	44.3 µM
Cc1ccc(NC(=O)CNC(=O)c2cc3ccccc3o2)cc1	17.7 µM
COc1cccc(S(=O)(=O)N2CCn3nc(C(C)(C)C)cc3C2)c1	24.6 µM
Cc1cc(C(=O)CSc2nc3ccccc3[nH]2)c(C)n1Cc1ccco1	> 50 µM (inactive)
COc1cccc2sc(N3CCN(c4nc5ccccc5s4)CC3)nc12	39.3 µM
Cc1nn(-c2ccc([N+](=O)[O-])cc2)c(C)c1-c1nc2ccccc2[nH]1	23.6 µM
O=S1(=O)CCN(Cc2c(F)cccc2F)c2c(F)nc(N3CCOCC3)c(F)c21	> 50 µM (inactive)
